These results are taken from patent US20030032078A1, “Methods and compositions for the treatment of macular and retinal degenerations” (Board of Regents, The University of Texas System, priority 2001, published 2003).

“Also recorded” adds a separate entry of the source. Like-named read-outs stand apart in the source and are kept apart here.

The test system of data set [1] is membranes from chicken and ground squirrel retinas. Description: Retinyl ester formation and isomerization from [3H]atROL in membranes from chicken and ground squirrel retinas. Format: biochemical. Particulars: chicken and ground squirrel retina membranes. An excerpt:
There are striking differences in retinyl-ester content and retinoid turnover upon analysis of ocular tissues from cone-dominant ground squirrel and chicken. Chicken retinas contained 60% 11cRE and 40% atRE, while ground-squirrel retinas contained 80% 11cRE and 20% atRE. The ratio of cones to rods is 60:40 in chicken (Meyer et al., 1973), 96:4 in ground squirrel (West et al., 1975), 3:97 in mouse (Carter-Dawson et al., 1979), and 8:92 in bovine retina (Krebs et al., 1982). Thus, across multiple species, the level of 11cRE in retina is loosely correlated with the ratio of cone to rod photoreceptors. […] During time-course studies, [^3H]11cROL always preceded the appearance of [3H]11cRE. […] In particular, this new all-trans-retinol isomerase (atRI) is insensitive to tRBA. This insensitivity rules out the trivial explanation of RPE contamination in retinal membrane preparations. […] Unlike LRAT, this new ester synthase is not inhibited by tRBA or cRBA, and has high specificity for the 11cROL substrate.

Data set [2] concerns microsomal membranes prepared from bovine RPE. In words: Retinyl ester formation and isomerization from [3H]retinols in microsomal membranes from bovine RPE. Type of data set: biochemical. The method, then:
The retinyl-ester content of fresh bovine ocular tissues were analyzed. Bovine RPE contained approximately 95% all-trans-retinyl esters (atRE) and 5% 1cRE. No retinyl esters were detectable in bovine retinas. When [^3H]atROL was added to microsomal membranes prepared from bovine RPE, the formation of [3H]atRE, and subsequent formation of [^3H]11cROL were observed. […] The isomeric inhibitor, 11-cis-retinyl α-bromoacetate (cRBA) was also synthesized. This agent suppressed the formation of [^3H]11cRE from [^3H]11cROL added to bovine-RPE membranes, but had no effect on the synthesis of [^3H]atRE or [^3H]11cROL from added [^3H]atROL. No ester-synthase activity was detected in bovine retinas. The results of these studies on rod-dominant bovine eyes are in full accord with the published results of other investigators (Rando et al., 1992; Saari et al., 1994; Crouch et al., 1996; Trehan et al., 1990).

For another data set, the target named is T1, LRAT (Bos taurus, UniProt Q9BGL2).
T1 construct: microsomal membranes prepared from bovine RPE; from tissue; host or cells: bovine retinal pigment epithelium, microsomal membranes
T1 sequence (Q9BGL2 1-230): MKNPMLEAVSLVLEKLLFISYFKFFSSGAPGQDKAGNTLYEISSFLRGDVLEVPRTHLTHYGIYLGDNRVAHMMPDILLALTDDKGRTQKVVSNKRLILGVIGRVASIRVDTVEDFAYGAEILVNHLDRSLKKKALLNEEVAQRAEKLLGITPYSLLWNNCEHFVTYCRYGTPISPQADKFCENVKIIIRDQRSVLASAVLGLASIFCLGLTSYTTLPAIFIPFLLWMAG
The following applies: Trehan et al., 1990; cited from earlier work.

The test system of another data set is abcr−/− mice. In words: A2E and A2PE-H2 levels in ocular tissues of abcr−/− mice treated with isotretinoin (HPLC). Type of data set: in vivo, mouse. The method, then: FIG. 7—A2E and A2PE-H2 in abcr−/− ocular tissues following treatment with isotretinoin. A2E and A2PE-H2 were extracted from the indicated tissues and analyzed by HPLC as previously described (Mata et al., 2000; Weng et al., 1999). (FIG. 7A) A2E levels in abcr−/− RPE from four-month-old mice treated for one month with isotretinoin at 40 mg/kg/day (4-mo 13cRA), four-month-old mice treated with DMSO carrier alone (4-mo DMSO), and three-month-old untreated mice (3-mo untreated). (FIG. 7B) A2PE-H2 levels in abcr−/− RPE from the same animals in panel (A) plus four-month-old untreated mice (4-mo untreated). (FIG. 7C) A2PE-H2 levels in abcr−/− retinas from the same animals in panel (B). All data are shown as milliabsorption units (mAU) at the indicated wavelengths±SEM (n=3).
Tissue Preparation and Extraction. Mouse and human tissues were homogenized in 1 ml of PBS. For analysis of mouse outer segments, dissected retinas were shaken on a vortex mixer in 8% Optiprep/Ringer's buffer and fractionated by centrifugation through an Optiprep step-gradient according to the procedure of Tsang et al. (1998). Collected outer segments were suspended in 1 ml PBS and homogenized. 1 ml of chloroform/methanol (2:1, v/v) was added to each homogenate. Phospholipids and chloroform-soluble fluorophores were extracted twice from the samples following addition of 4 ml of chloroform and 3 ml water. The pooled organic phases were dried under a stream of argon. Sample residues were resuspended in 200- 400 μl of hexane, and analyzed by HPLC.
Sample extracts were analyzed by normal phase HPLC using an HP 1100 liquid chromatograph with a photodiode array detector. Chromatography conditions were as previously described (Birnbach et al., 1994) using a silica column (Microsorb 5 μm Si, 250×4.6 mm) and the mobile phase: hexane/2-propanol/ethanol/25 mM potassium phosphate/acetic acid (485:376:100:40:0.275, v/v; pH 7.0). For A2PE-H2 purification, the water content was reduced to 2.5% for better resolution of fatty acyl esters. Spectra for the eluted peaks were corrected by subtracting the nearest integrated baseline to remove solvent absorption. A2-E, phosphatidylethanolamine, and all-trans-RAL were quantitated by comparing the sample peak-area to a calibration curve constructed with authentic standards (18:0-22:6 for the phosphatidylethanolamine standard) (Birnbach et al., 1994). […] In Table 6, APE and protonated-APE were quantitated using published molar extinction coefficients (Anderson et al., 1996).
Three-month-old abcr−/− mice were treated with isotretinoin (13 cis retinoic acid) for one month.

The test system of a further data set is humans. Particulars: clinical use for acne; due to impaired regeneration of rhodopsin; cited from earlier work.
In a further data set the test system is 11cRDH. Particulars: Law et al., 1989, Gamble et al., 1999, cited from earlier work.
In data set [3] the test system is mice. The following applies: Yuschak et al., 1993; cited from earlier work.
For data set [4], the system named is mice. Description: Photoreceptor degeneration by histologic or electroretinographic (ERG) analysis after prolonged isotretinoin treatment. The following applies: prolonged treatment at doses up to 50 mg/kg/day (25× the maximum human dose). Format: in vivo, mouse. An excerpt: (§1) Long delays in 11cRAL regeneration are also observed after a photobleach in mice treated with isotretinoin. This alteration in the retinoid profile is similar to the pattern in 11cRDH knockout-mice (Driessen et al., 2000).

The nature of data set [5]: Isotretinoin in retina and RPE by HPLC analysis after intraperitoneal injection.
For data set [6] the following is noted: humans; cited from earlier work.
A further data set deals with wild-type mice. In words: Retinoid profile after intraperitoneal injection of isotretinoin into light-adapted wild-type mice. Type of data set: in vivo, mouse.
Text: as §1

Data set [7] relates to patients with neovascularisation extending under the center of the retina. The following applies: cited from earlier work.
Data set [8] relates to patients with retinitis pigmentosa (RP) and related retinal degenerations. The following applies: supplemental lutein; Dagnelie et al., 2000; cited from earlier work.
The next data set relates to rodent model. The following applies: cited from earlier work.
Where [9] appears, read: light-adapted wild-type mice, intraperitoneal injection.

With `CC1=C(/C=C/C(C)=C/C=C/C(C)=C/COC(=O)CBr)C(C)(C)CCC1` [tRBA, all-trans-retinyl α-bromoacetate], in data set [1], the “formation of [3H]11cROL or [3H]11cRE from added [3H]atROL” value was “no effect” and the “formation of [3H]atRE from added [3H]atROL” value is listed as “completely suppressed”. In data set [2], the “formation of [3H]11cRE from added [3H]11cROL” value is on record as “completely inhibited”; the “formation of atRE and 11cROL from added [3H]atROL” value is listed as “completely suppressed”. Also, the “inhibition of LRAT” value at LRAT is given as “potent inhibitor”.

As to `CC1=C(/C=C/C(C)=C/C=C/C(C)=C\C(=O)O)C(C)(C)CCC1` [isotretinoin, 13-cis-retinoic acid], the “suppression of A2E accumulation in RPE” value in the data set with abcr−/− mice (abcr−/− mice, isotretinoin 40 mg/kg/day for one month, FIG. 7A) is on record as “approximately two-fold”. Further, in the data set with abcr−/− mice (abcr−/− mice, isotretinoin 40 mg/kg/day for one month, FIG. 7B), the “suppression of A2PE-H2 accumulation in RPE” value was “approximately three-fold”. In the data set with abcr−/− mice (four-month-old abcr−/− mice after one month of isotretinoin, FIG. 7C), the A2PE-H2 in retina entry is reported as “near absence; also recorded: virtually undetectable”. In addition, the “A2E in RPE, level relative to sham-treated (DMSO) controls” value in the data set on abcr−/− mice (four-month-old abcr−/− mice treated for one month with isotretinoin at 40 mg/kg/day) was “approximately 50%”. Moreover, the “side effect night blindness” value with humans is listed as “common side effect”. Besides, the “inhibition of 11cRDH in RPE” value in the data set with 11cRDH is on record as “potent inhibitor”. The “inhibition of 11cRDH in RPE” value in the data set with 11cRDH (listed as Isotretinoin) is listed as “inhibit 11cRDH”. Also, in the data set with mice [3], the tolerated dose result is given as “up to 400 mg/kg/day”. In the data set with mice [4], the “photoreceptor degeneration by histologic or electroretinographic (ERG) analysis” value is “No photoreceptor degeneration”. Moreover, the “detection in retina and RPE” value in data set [5] (five minutes following an intraperitoneal injection) is given as “detected”. In addition, the tissue concentrations entry in data set [5] (one hour following a single injection at 4 mg/kg) is reported as “micromolar range”. The serum half-life in data set [6] is 10 to 20 h. For the same molecule, in the data set on wild-type mice (setting [9]), the “11cRAL and atRAL in outer segments” value is reported as “Profound depletion”; the “11cRE in RPE cells” value is “accumulation”. Besides, in the data set on wild-type mice (mice treated with isotretinoin), the “11cRAL regeneration after a photobleach” value is “Long delays”.

In the case of `CC1=C(/C=C/C(C)=C/C=C\C(C)=C/COC(=O)CBr)C(C)(C)CCC1` [cRBA, 11-cis-retinyl α-bromoacetate], the “synthesis of [3H]11cRE” value in data set [1] is recorded as “no effect”. Moreover, in data set [2], the “formation of [3H]11cRE from added [3H]11cROL” value is recorded as “suppressed”; the “formation of atRE and 11cROL from added [3H]atROL” value is listed as “no effect”.

Regarding verteporfin, the “risk of moderate and severe vision loss” value in data set [7] (at one year, reduced from 61%) is reported as 33%; in [7] (at two years, reduced from 69%), 41%.

Turning to `CC1=C[C@H](O)CC(C)(C)[C@H]1/C=C/C(C)=C/C=C/C(C)=C/C=C/C=C(C)/C=C/C=C(C)/C=C/C1=C(C)C[C@@H](O)CC1(C)C` [lutein], the effect on vision entry in data set [8] is given as “short term improvements in vision”.

B1: Glial Derived Neurotrophic Factor: a survival factor which has slowed degeneration in a rodent model (protein, UniProt P39905 78-211, looked up)
Glial cell line-derived …: SPDKQMAVLPRRERNRQAAAANPENSRGKGRRGQRGKNRGCVLTAIHLNVTDLGLGYETKEELIFRYCSGSCDAAETTYDKILKNLSRNRRLVSDKVGQACCRPIAFDDDLSFLDDNLVYHILRKHSAKRCGCI
B1: the “effect on retinal degeneration” value in the data set with rodent model is listed as “slowed degeneration”.
